Our source for the T/C values is PubChem BioAssay AID276 (DTP/NCI, 2004).

This experiment has as its system B6C3F1 mice, Lewis lung carcinoma iv, survival T/C. The experiment in a line: NCI In Vivo Anticancer Drug Screen. Data for tumor model Lewis Lung Carcinoma (intravenous) in B6C3F1 mice. The settings on record: endpoint: median survival time, schedule: Q01DX009 (ip), higher = longer survival. The method in brief: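 Antitumor activity is assessed in tumor-bearing mice by comparing survival after compound treatment against vehicle-treated controls, reported as a T/C ratio.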

Setting [1] is: dose: 1.5 mg/kg/injection, vehicle: water.
The mark [2] stands for this setting: dose: 3.0 mg/kg/injection, vehicle: water.
The mark [3] stands for this setting: dose: 12.0 mg/kg/injection, vehicle: water.
Where [4] appears, read: dose: 12.5 mg/kg/injection, vehicle: saline.
Where [5] appears, read: dose: 25.0 mg/kg/injection, vehicle: saline.
Where [6] appears, read: dose: 25.0 mg/kg/injection, vehicle: saline with Tween-80.
Where [7] appears, read: dose: 50.0 mg/kg/injection, vehicle: saline with Tween-80.
Where [8] appears, read: dose: 100.0 mg/kg/injection, vehicle: saline with Tween-80.
Setting [9] is: dose: 25.0 mg/kg/injection, vehicle: Klucel (hydroxypropylcellulose) (HPC).
[10] abbreviates: dose: 50.0 mg/kg/injection, vehicle: Klucel (hydroxypropylcellulose) (HPC).
Setting [11] is: dose: 12.5 mg/kg/injection, vehicle: saline with Tween-80.
[12] abbreviates: dose: 50.0 mg/kg/injection, vehicle: saline.
[13] abbreviates: dose: 100.0 mg/kg/injection, vehicle: saline.

Several values for one entry are separate records, joined by “and”; a condition that tells them apart may be missing. Identical values can stand only once. Inconclusive results and toxic doses are left out.

As to `COc1cccc2c1C(=O)c1c(O)c3c(c(O)c1C2=O)CC(O)(/C(C)=N/NC(=O)CCC(=O)N/N=C(\C)C1(O)Cc2c(O)c4c(c(O)c2C(OC2CC(N)C(O)C(C)O2)C1)C(=O)c1c(OC)cccc1C4=O)CC3OC1CC(N)C(O)C(C)O1` (stereo not given), the T/C reads like this: (dose: 0.75 mg/kg/injection, vehicle: water) 99 % of control and 100 % of control; under setting [1], 103 % of control and 105 % of control; under setting [2], 101 % of control; (dose: 6.0 mg/kg/injection, vehicle: water) 105 % of control and 260 % of control; under setting [3], 101 % of control and 113 % of control; (dose: 24.0 mg/kg/injection, vehicle: water) 104 % of control.

Consider `CNC(=O)O/N=C(\CN=[N+]=[N-])C(C)(C)C`, for which the T/C is, setting by setting: (dose: 0.13 mg/kg/injection, vehicle: saline) 102 % of control; (dose: 0.25 mg/kg/injection, vehicle: saline) 102 % of control; (dose: 0.5 mg/kg/injection, vehicle: saline) 106 % of control; (dose: 1.0 mg/kg/injection, vehicle: saline) 105 % of control.

For the compound `O=c1n(CC2CO2)c(=O)n(CC2CO2)n1CC1CO1` (stereo not given), the T/C by setting is: (dose: 6.25 mg/kg/injection, vehicle: saline) 100 % of control; under setting [4], 108 % of control; under setting [5], 108 % of control.

Take `COc1cc2c(c(OC)c1OC)-c1c(cc3c(c1OC)OCO3)CC(C)C(C)(O)C2OC(=O)c1ccccc1` (stereo not given): the T/C was 93 % of control (dose: 6.25 mg/kg/injection, vehicle: saline + alcohol); 96 % of control (dose: 12.5 mg/kg/injection, vehicle: saline + alcohol); 107 % of control (dose: 25.0 mg/kg/injection, vehicle: saline + alcohol); 102 % of control (dose: 50.0 mg/kg/injection, vehicle: saline + alcohol); 106 % of control (dose: 100.0 mg/kg/injection, vehicle: saline + alcohol); 103 % of control (dose: 200.0 mg/kg/injection, vehicle: saline + alcohol).

For the compound `O=C(CN1CCOCC1)Nc1nc(-c2ccc(Cl)cc2)cs1`, the T/C by setting is: (dose: 50.0 mg/kg/injection, vehicle: DMSO) 91 % of control; (dose: 100.0 mg/kg/injection, vehicle: DMSO) 92 % of control; (dose: 200.0 mg/kg/injection, vehicle: DMSO) 103 % of control; (dose: 400.0 mg/kg/injection, vehicle: DMSO) 100 % of control; (dose: 800.0 mg/kg/injection, vehicle: DMSO) 95 % of control.

In the case of `O=C(Nc1cccc(Cl)c1)ON1C(=O)C2C(C1=O)C1(Cl)C(Cl)C(Cl)C2(Cl)C1(Cl)Cl` (stereo not given), the T/C is, setting by setting: under setting [6], 95 % of control; under setting [7], 97 % of control; under setting [8], 87 % of control.

`CCN(C)N=Nc1ccc(C(N)=O)cc1`: the T/C (dose: 6.25 mg/kg/injection, vehicle: Klucel (hydroxypropylcellulose) (HPC)) was 95 % of control; the T/C (dose: 12.5 mg/kg/injection, vehicle: Klucel (hydroxypropylcellulose) (HPC)) is 104 % of control; the T/C under setting [9] is 111 % of control; the T/C under setting [10] is 122 % of control.

In the case of `C(=N/NC1=NCCN1)/c1c2ccccc2c(/C=N\NC2=NCCN2)c2ccccc12`, the T/C runs as follows: (dose: 3.12 mg/kg/injection, vehicle: saline) 110 % of control; under setting [4], 100 % of control; under setting [5], 100 % of control.

As for `CCN(CC)CCNc1ccc(C)c2sc3ccc(O)cc3c(=O)c12`, the T/C is 95 % of control under setting [11], 105 % of control under setting [6] and 102 % of control under setting [7].

On to `CC(=O)O[C@@H]1CO[C@H]2O[C@H]3[C@@H](C(C=O)=C[C@H](O)[C@@H]4C5=C(C(C)C)CC[C@]5(C)CC[C@@]34C)[C@@]2(O)C1=O`, for which the T/C was 103 % of control (dose: 0.75 mg/kg/injection, vehicle: Klucel (hydroxypropylcellulose) (HPC)); 98 % of control (dose: 1.5 mg/kg/injection, vehicle: Klucel (hydroxypropylcellulose) (HPC)); 100 % of control (dose: 3.0 mg/kg/injection, vehicle: Klucel (hydroxypropylcellulose) (HPC)).

Consider `O=CC(S)CO` (stereo not given), for which the T/C runs as follows: under setting [4], 105 % of control and 107 % of control; under setting [5], 95 % of control and 107 % of control; under setting [12], 101 % of control and 102 % of control; under setting [13], 101 % of control and 112 % of control; (dose: 200.0 mg/kg/injection, vehicle: saline) 96 % of control and 102 % of control.

Consider `COc1cccc2c1C(=O)c1c(O)c3c(c(O)c1C2=O)C[C@@](O)(C(=O)CO)C[C@@H]3OC1CC(OC(C)=O)C(OC(C)=O)C(C)O1` (stereo not given in full), for which the T/C was 91 % of control (dose: 0.78 mg/kg/injection, vehicle: water); 119 % of control under setting [1]; 106 % of control (dose: 1.56 mg/kg/injection, vehicle: distilled water + Tween-80); 103 % of control (dose: 1.56 mg/kg/injection, vehicle: water); 111 % of control under setting [2]; 113 % of control (dose: 3.12 mg/kg/injection, vehicle: distilled water + Tween-80). For the same compound, the T/C runs as follows: (dose: 3.12 mg/kg/injection, vehicle: water) 111 % of control; under setting [3], 266 % of control; (dose: 12.5 mg/kg/injection, vehicle: distilled water + Tween-80) 285 % of control.

As for `CCN(CC)CCOCCO`, the T/C runs as follows: (dose: 12.0 mg/kg/injection, vehicle: saline) 96 % of control; under setting [5], 99 % of control; under setting [12], 99 % of control; under setting [13], 101 % of control.

As for `O=c1nc(-c2ccco2)sc(=O)[nH]1`, the T/C was 112 % of control (dose: 12.0 mg/kg/injection, vehicle: Klucel (hydroxypropylcellulose) (HPC)); 96 % of control under setting [9]; 105 % of control under setting [10]; 116 % of control (dose: 100.0 mg/kg/injection, vehicle: Klucel (hydroxypropylcellulose) (HPC)); 104 % of control (dose: 200.0 mg/kg/injection, vehicle: Klucel (hydroxypropylcellulose) (HPC)).

Regarding `CCCCCC1c2cc(O)ccc2OC1N1CCOCC1` (stereo not given), the T/C reads like this: (dose: 6.0 mg/kg/injection, vehicle: saline with Tween-80) 96 % of control; (dose: 12.0 mg/kg/injection, vehicle: saline with Tween-80) 104 % of control; under setting [11], 97 % of control; under setting [6], 91 % of control; under setting [7], 103 % of control and 104 % of control; under setting [8], 94 % of control and 96 % of control. The T/C (dose: 200.0 mg/kg/injection, vehicle: saline with Tween-80) was 90 % of control and 99 % of control.

Turning to `CS(=O)(=O)Nc1ccc(C(=O)CCN2CCCCCC2)cc1`, the T/C is 95 % of control (dose: 25.0 mg/kg/injection, vehicle: suspension in saline); 100 % of control (dose: 50.0 mg/kg/injection, vehicle: suspension in saline); 105 % of control (dose: 100.0 mg/kg/injection, vehicle: suspension in saline); 100 % of control (dose: 200.0 mg/kg/injection, vehicle: suspension in saline); 102 % of control (dose: 400.0 mg/kg/injection, vehicle: suspension in saline).
